Data reported in patent US7737136B2 (N.V. Organon, priority 2002, dated 2010).

Key:
[1] = target: T1, human progesterone receptor-B (Homo sapiens, UniProt P06401); experiment: Progesterone receptor-B transactivation assay, antiprogestagenic activity (inhibition of luciferase transactivation induced by Org 2058); format: cell-based; conditions: in the presence of 1 nM (16α)-16-ethyl-21-hydroxy-19-norpregn-4-ene-3,20-dione (Org 2058); read-out: Anti-progestagenic activity EC50
T1 construct: expressed in transfected cells; host or cells: Chinese hamster ovary (CHO) cells, line CHO-PRB-pMMTV-LUC 1E2-A2
T1 sequence (P06401 1-933): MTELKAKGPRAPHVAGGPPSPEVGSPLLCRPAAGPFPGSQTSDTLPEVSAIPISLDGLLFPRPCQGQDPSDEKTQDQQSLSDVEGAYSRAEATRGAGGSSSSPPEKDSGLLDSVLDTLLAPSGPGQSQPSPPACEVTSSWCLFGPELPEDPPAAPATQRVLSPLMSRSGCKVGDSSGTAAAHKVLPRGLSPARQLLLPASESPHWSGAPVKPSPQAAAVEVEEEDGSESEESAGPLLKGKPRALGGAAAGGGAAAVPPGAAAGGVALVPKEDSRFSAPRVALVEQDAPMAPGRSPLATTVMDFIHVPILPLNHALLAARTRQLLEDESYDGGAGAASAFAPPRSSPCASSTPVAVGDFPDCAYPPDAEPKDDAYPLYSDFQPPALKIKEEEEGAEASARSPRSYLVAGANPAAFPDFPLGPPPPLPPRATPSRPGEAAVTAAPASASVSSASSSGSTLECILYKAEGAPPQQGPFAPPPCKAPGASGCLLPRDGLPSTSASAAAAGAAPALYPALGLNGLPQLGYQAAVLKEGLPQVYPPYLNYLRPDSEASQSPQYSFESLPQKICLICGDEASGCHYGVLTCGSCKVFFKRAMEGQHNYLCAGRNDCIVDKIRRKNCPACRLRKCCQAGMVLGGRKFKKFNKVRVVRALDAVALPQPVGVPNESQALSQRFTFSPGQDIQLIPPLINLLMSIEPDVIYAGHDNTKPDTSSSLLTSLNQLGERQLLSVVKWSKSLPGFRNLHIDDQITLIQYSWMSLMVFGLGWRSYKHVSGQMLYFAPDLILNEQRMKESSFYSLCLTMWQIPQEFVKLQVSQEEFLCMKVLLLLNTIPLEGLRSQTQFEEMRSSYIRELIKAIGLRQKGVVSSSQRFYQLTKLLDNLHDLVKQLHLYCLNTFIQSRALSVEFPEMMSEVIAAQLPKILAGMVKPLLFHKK
Procedure: (§1) The (anti-)progestagenic activity of a compound of the invention (EC 50 and intrinsic activity) was determined in an in vitro bioassay of Chinese hamster ovary (CHO) cells stably transfected with the human progesterone receptor-B expression plasmid and with a reporter plasmid in which the MMTV-promoter is linked to the luciferase reporter gene. […] The cells were cultured with charcoal-treated supplemented defined bovine calf serum from Hyclone (Utah, USA) in Dulbecco's Modified Eagles Medium/Nutrient Mixture F-12 (DMEM/HAM F12 in ratio 1:1) from Gibco (Paisley, UK).

[2] = target: T1, human progesterone receptor-B; experiment: Progesterone receptor-B transactivation assay, progestagenic (agonist) activity, CHO-PRB-pMMTV-LUC 1E2-A2 cells; format: cell-based; conditions: CHO cells stably transfected with human progesterone receptor-B and MMTV-luciferase reporter; read-out: Progestagenic activity EC50
Procedure: as §1

Compound | EC50 [1] [nM] | EC50 [2] [nM]
O=C(N[C@H]1CCCN2c3cc(F)ccc3Oc3ccccc3[C@H]12)C(F)(F)F (relative stereo) [Example 5, trans-2,2,2-Trifluoro-N-(7-fluoro-2,3,4,14b-tetrahydro-1H-dibenzo[b,f]pyrido[1,2-d][1,4]oxazepin-1-yl)acetamide] | 100 to 10000 | 100 to 10000
O=C(N[C@H]1CCCN2c3cc(Cl)c(Cl)cc3Oc3ccccc3[C@H]12)C(F)(F)F (relative stereo) [Example 38A, trans-N-(7,8-Dichloro-2,3,4,14b-tetrahydro-1H-dibenzo[b,f]pyrido[1,2-d][1,4]oxazepin-1-yl)-2,2,2-trifluoroacetamide] | 100 to 10000 | 10 to 100
CC(=O)N[C@H]1CCCN2c3cc(Cl)ccc3Oc3ccccc3[C@H]12 (relative stereo) [Example 10, trans-N-(7-Chloro-2,3,4,14b-tetrahydro-1H-dibenzo[b,f]pyrido[1,2-d][1,4]oxazepin1-yl)acetamide] | 100 to 10000 | 100 to 10000

Further lines, results first:

EC50 [1] [nM] | EC50 [2] [nM] | Compound
10 to 100 | 100 to 10000 | CC(C)(C)OC(=O)CN[C@H]1CCCN2c3cc(Cl)ccc3Sc3ccccc3[C@H]12 (relative stereo) [Example 49, 1,1-Dimetylethyl trans-2-[(7-chloro-2,3,4,14b-tetrahydro-1H-dibenzo[b,f]pyrido[1,2-d][1,4]thiazepin-1-yl)amino]acetate]
10 to 100 | 10 to 100 | N=C(N[C@H]1CCCN2c3cc(Cl)ccc3Oc3ccccc3[C@H]12)C(F)(F)F (relative stereo) [Example 29, trans-N-(7-Chloro-2,3,4,14b-tetrahydro-1H-dibenzo[b,f]pyrido[1,2-d][1,4]oxazepin-1-yl)-2,2,2-trifluoroacetimidamide]
10 to 100 | < 10 | O=C(N[C@H]1CCCN2c3cc(Cl)ccc3Cc3ccccc3[C@H]12)C(F)(F)F (relative stereo) [Example 8, trans-N-(7-Chloro-1,2,3,4,10,14b-hexahydrodibenzo[c,f]pyrido[1,2-a]azepin-1-yl)-2,2,2-trifluoroacetamide]
